From US6352988B2, “Indane or dihydroindole derivatives” (H. Lundbeck A/S, priority 1996, dated 2002) come the findings set out here.

pIC50: −log10 of the molar value.

The target in one assay is T1, dopamine D4 receptors in cloned human dopamine receptor subtype 4.2 membranes (Homo sapiens, UniProt P21917, DEL271-302).
T1 sequence (P21917 with tags, fused parts or gaps DEL271-302): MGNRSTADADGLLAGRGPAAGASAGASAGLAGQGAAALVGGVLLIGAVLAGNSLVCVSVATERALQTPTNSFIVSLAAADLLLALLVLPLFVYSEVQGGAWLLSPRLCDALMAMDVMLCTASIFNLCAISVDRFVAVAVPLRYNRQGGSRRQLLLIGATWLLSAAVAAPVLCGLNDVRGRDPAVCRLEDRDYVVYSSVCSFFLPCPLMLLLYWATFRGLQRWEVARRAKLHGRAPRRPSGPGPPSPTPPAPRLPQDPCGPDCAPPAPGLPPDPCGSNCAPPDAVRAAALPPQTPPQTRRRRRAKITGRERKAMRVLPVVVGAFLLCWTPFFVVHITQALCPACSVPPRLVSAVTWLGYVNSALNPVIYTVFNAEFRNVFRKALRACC
In words: 3H-YM-09151-2 binding (affinity for dopamine D4 receptors). The settings on record: 3H-YM-09151-2, cloned human D4.2 membranes; * means that the test result is preliminary; read-out: D4-bind. IC50. The protocol: By this method the inhibition by drugs of the binding of the dopamine D4 antagonist ^3H-YM-09151-2 to dopamine D4 receptors in cloned human dopamine receptor subtype 4.2 membranes is determined in vitro. Accordingly, this is a test for affinity for dopamine D4 receptors. The test is performed using a preparation of cloned dopamine D4 cell membranes CRM-016®, Dupharma A/S, Denmark, in accordance with the product specifications.
Regarding `CC(=O)N1CC(CCN2CC=C(c3c[nH]c4cc(Cl)ccc34)CC2)c2ccccc21` (single isomer, unassigned; (+)) [Compound 34a], the pIC50 (in general, the negative decadic logarithm of the IC50, by convention in mol/L) is 8.40. Turning to `C1=C(c2c[nH]c3ccccc23)CCN(CC2CCc3ccccc32)C1` (stereo not drawn) [Compound 5a, 3-[1-(1-Indanylmethyl)-1,2,3,6-tetrahydropyridin-4-yl]-1H-indole], the pIC50 is 8.46. The same measure, in the same setting: in the case of `c1ccc2c(c1)CCC2CN1CCC(c2c[nH]c3ccccc23)CC1` (stereo not drawn) [Compound 5b, 3-[1-(1-Indanylmethyl)piperindin-4-yl]-1H-indole] it was 8.30. The same measure, in the same setting: in the case of `COc1cccc2c1C(CN1CC=C(c3c[nH]c4cc(Cl)ccc34)CC1)CC2` (stereo not drawn) [Compound 5c, 6-Chloro-3-[1-(7-methoxyindan-1-yl)methyl-1,2,3,6-tetrahydropyridin-4-yl]-1H-indole] it was 7.49; in that of `COc1ccc2c(c1)C(CN1CC=C(c3c[nH]c4ccccc34)CC1)CC2` (stereo not drawn) [Compound 5d, 3-[1-(6-methoxyindan-1-yl)methyl-1,2,3,6-tetrahydropyridin-4-yl]-1H-indole], 7.70; in that of `N#Cc1ccc2c(c1)C(CN1CC=C(c3c[nH]c4cc(Cl)ccc34)CC1)CC2` (stereo not drawn) [Compound 6a, 6-Chloro-3-[1-(6-cyano-1-indanylmethyl)-1,2,3,6-tetrahydropyridin-4-yl]-1H-indole], 8.17.

Consider `N#Cc1ccc2c(c1)C(CN1CCC(c3c[nH]c4cc(Cl)ccc34)CC1)CC2` (stereo not drawn) [Compound 6b, 6-Chloro-3-[1-(6-cyano-1-indanylmethyl)piperidin-4-yl]-1H-indole], for which the pIC50 was 8.48. As for `CC(=O)Nc1ccc2c(c1)CCC2CN1CC=C(c2c[nH]c3cc(Cl)ccc23)CC1` (stereo not drawn) [Compound 6d, 6-Chloro-3-[1-(5-acetylamino-1-indanylmethyl)-1,2,3,6-tetrahydropyridin-4-yl]-1H-indole], the pIC50 was 7.52.

Consider `Clc1ccc2c(C3=CCN(CC4CCc5ccc(Br)cc54)CC3)c[nH]c2c1` (stereo not drawn) [Compound 6e, 6-Chloro-3-[1-(6-bromo-1-indanylmethyl)-1,2,3,6-tetrahydropyridin-4-yl]-1H-indole], for which the pIC50 is 7.08. Still for that read-out and setting: in the case of `Fc1ccc2[nH]cc(C3CCN(CCC4CCc5ccccc54)CC3)c2c1` (stereo not drawn) [Compound 8c, 5-fluoro-3-[1-[2-(indan-1-yl)ethyl]-piperidin-4-yl]-1H-indole] it was 8.64. For the molecule `Fc1ccc2[nH]cc(C3CCN(CCCCC4CCc5ccccc54)CC3)c2c1` (stereo not drawn) [Compound 8e, 5-fluoro-3-[1-[4-(indan-1-yl)butan-1-yl]-piperidin-4-yl]-1H-indole], the pIC50 is 8.08. Regarding `Clc1ccc2c(C3CCN(CCCCC4CCc5ccccc54)CC3)c[nH]c2c1` (stereo not drawn) [Compound 8f, 6-Chloro-3-[1-[4-(indan-1-yl)butan-1-yl)-piperidin-4-yl]-1H-indole], the pIC50 is 7.92.

For the molecule `Clc1ccc2c(C3=CCN(CCCC4CCc5ccccc54)CC3)c[nH]c2c1` (stereo not drawn) [Compound 8g, 6-Chloro-3-[1-[3-(indan-1-yl)propan-1-yl]-1,2,3,6-tetrahydropyridin-4-yl]-1H-indole], the negative logarithm of the IC50 (pIC50) is 7.85. Still for that read-out and setting: in the case of `Clc1ccc2c(C3=CCN(CCCCC4CCc5ccccc54)CC3)c[nH]c2c1` (stereo not drawn) [Compound 8h] it was 7.47; in that of `Clc1ccc2c(C3=CCN(CC4Cc5ccccc5C4)CC3)c[nH]c2c1` [Compound 11a, 6-Chloro-3-[1-(indan-2-yl)methyl-1,2,3,6-tetrahydropyridin-4-yl]-1H-indole], 8.55; in that of `Clc1cccc2c(C3=CCN(CC4Cc5ccccc5C4)CC3)c[nH]c12` [Compound 11c, 7-Chloro-3-[1-(indan-2-yl)methyl-1,2,3,6-tetrahydropyridin-4-yl]-1H-indole], 8.42. The same measure, in the same setting: in the case of `c1ccc2c(c1)CC(CN1CCN(c3ccc4[nH]ccc4c3)CC1)C2` [Compound 11f, 5-[4-(Indan-2-yl)methylpiperazin-1-yl]-1H-indole] it was 8.80.

Regarding `Clc1ccc2c(C3=CCN(CC4CCc5ccc6[nH]ccc6c54)CC3)c[nH]c2c1` (stereo not drawn) [Compound 16a, 8-[4-(6-Chloro-1H-indol-3-yl)-1,2,3,6-tetrahydropyridin-1-ylmethyl]-3,6,7,8-tetrahydro-cyclopent[e]indole], the pIC50 was 8.21. Same read-out and setting: in the case of `CC(=O)Nc1cccc2c1CC(CN1CC=C(c3c[nH]c4cc(Cl)ccc34)CC1)C2` (stereo not drawn) [Compound 18a, 6-Chloro-3-[1-(4-acetylaminoindan-2-yl)methyl-1,2,3,6-tetrahydropyridine-4-yl]-1H-indole] it was 8.12; in that of `CC(=O)Nc1cccc2c1CC(CN1CCC(c3c[nH]c4cc(Cl)ccc34)CC1)C2` (stereo not drawn) [Compound 18b, 6-Chloro-3-[1-(4-acetylaminoindan-2-yl)methylpiperidin-4-yl]-1H-indole], 8.37. On the same count and under the same terms, in the case of `CC(=O)Nc1ccc2c(c1)C(CCN1CC=C(c3c[nH]c4cc(Cl)ccc34)CC1)CC2` (stereo not drawn) [Compound 18c] it was 7.39; in that of `CC(=O)Nc1ccc2c(c1)C(CCCN1CC=C(c3c[nH]c4cc(Cl)ccc34)CC1)CC2` (stereo not drawn) [Compound 18d, 6-Chloro-3-[1-[3-(6-acetylaminoindan-1-yl)propan-1-yl]-1,2,3,6-tetrahydropyridin-4-yl]-1H-indole], 8.14; in that of `CC(=O)Nc1ccc2c(c1)C(CCCCN1CC=C(c3c[nH]c4cc(Cl)ccc34)CC1)CC2` (stereo not drawn) [Compound 18e, 6-Chloro-3-[1-[4-(6-acetylaminoindan-1-yl)butan-1-yl]-1,2,3,6-tetrahydropyridin-4-yl]-1H-indole], 7.18. Still for that read-out and setting: in the case of `CC(=O)N1CC(CCN2CC=C(c3c[nH]c4cc(Cl)ccc34)CC2)c2ccccc21` (stereo not drawn) [Compound 20a, 3-[1-[2-(1-Acetyl-2,3-dihydro-1H-indol-3-yl)ethyl]-1,2,3,6-tetrahydropyridin-4-yl]-6-chloro-1H-indole] it was 8.51; in that of `CC(=O)N1CC(CCN2CCC(c3c[nH]c4cc(Cl)ccc34)CC2)c2ccccc21` (stereo not drawn) [Compound 20b, 3-[1-[2-(1-Acetyl-2,3-dihydro-1H-indol-3-yl)ethyl]piperidin-4-yl]-6-chloro-1H-indole], 8.17; in that of `O=CN1CC(CCN2CC=C(c3c[nH]c4cc(Cl)ccc34)CC2)c2ccccc21` (stereo not drawn) [Compound 20c, 6-Chloro-3-[1-[2-(1-formyl-2,3-dihydro-1H-indol-3-yl)ethyl]-1,2,3,6-tetrahydropyridin-4yl]-1H-indole], 8.62. For `O=CN1CC(CCN2CCC(c3c[nH]c4cc(Cl)ccc34)CC2)c2ccccc21` (stereo not drawn) [Compound 20d, 6-Chloro-3-[1-[2-(1-formyl-2,3-dihydro-1H-indol-3-yl)ethyl]piperidin-4-yl]-1H-indole], the pIC50 is 8.52. Same read-out and setting: in the case of `CC(=O)N1CC(CCN2CC=C(c3c[nH]c4c(Cl)cccc34)CC2)c2ccccc21` (stereo not drawn) [Compound 20f, 3-[1-[2-(1-Acetyl-2,3-dihydro-1H-indol-3-yl)ethyl]-1,2,3,6-tetrahydropyridin-4-yl]-7-chloro-1H-indole] it was 8.49. Regarding `CC(=O)N1CC(CCN2CC=C(c3c[nH]c4c(Cl)c(Cl)ccc34)CC2)c2ccccc21` (stereo not drawn) [Compound 20g, 3-[1-[2-(1-Acetyl-2,3-dihydro-1H-indol-3-yl)ethyl]-1,2,3,6-tetrahydropyridin-4-yl]-6,7-dichloro-1H-indole], the pIC50 is 7.80.

Regarding `CC(=O)N1CC(CCN2CC=C(c3c[nH]c4cc5c(cc34)OCO5)CC2)c2ccccc21` (stereo not drawn) [Compound 20h, 3-[1-[2-(1-Acetyl-2,3-dihydro-1H-indol-3-yl)ethyl]-1,2,3,6-tetrahydropyridin-4-yl]-5,6-methylenedioxy-1H-indole], the pIC50 is 7.52. The same measure, in the same setting: in the case of `CC(C)(C)OC(=O)N1CC(CCN2CC=C(c3c[nH]c4cc(Cl)ccc34)CC2)c2ccccc21` (stereo not drawn) [Compound 20i, 3-[1-[2-(1-tert-Butoxycarbonyl-2,3-dihydro-1H-indol-3-yl)ethyl]-1,2,3,6-tetrahydropyridin-4-yl]-6-chloro-1H-indole] it was 8.54; in that of `CC(=O)N1CC(CCN2CCN(c3ccc4[nH]ccc4c3)CC2)c2ccccc21` (stereo not drawn) [Compound 20j, 5-[4-[2-(1-Acetyl-2,3-dihydro-1H-indol-3-yl)ethyl]piperazin-1-yl]-1H-indole], 8.16; in that of `CC(=O)N1CC(CCCN2CC=C(c3c[nH]c4cc(Cl)ccc34)CC2)c2ccccc21` (stereo not drawn) [Compound 20k, 3-[1-[3-(1-Acetyl-2,3-dihydro-1H-indol-3-yl)propyl]-1,2,3,6-tetrahydropyridin-4-yl]-6-chloro-1H-indole], 8.00.

Take `CC(=O)N1CC(CCN2CC=C(c3c[nH]c4cc(Cl)ccc34)CC2)c2cc(C)ccc21` (stereo not drawn) [Compound 20m, 3-[1-[2-(1-Acetyl-5-methyl-2,3-dihydro-1H-indol-3-yl)ethyl]-1,2,3,6-tetrahydropyridin-4-yl]-6-chloro-1H-indole]: the pIC50 was 8.08.

Consider `Clc1ccc2c(C3CCN(CC4Cc5ccccc5C4)CC3)c[nH]c2c1` [Compound 21a, 6-Chloro-3-[1-(indan-2-ylmethyl)piperidin-4yl]-1H-indole], for which the negative-log IC50 (pIC50) is 9.32.

The assay is the same for the next values; noted with them: at 50 nM; 3H-YM-09151-2, cloned human D4.2 membranes; read-out: D4-bind. % inhibition of binding at 50 nM.
`CC(=O)N1CC(CCN2CC=C(c3c[nH]c4cc(Cl)ccc34)CC2)c2cc(Br)ccc21` (stereo not drawn) [Compound 20e, 3-[1-[2-(1-Acetyl-5-bromo-2,3-dihydro-1H-indol-3-yl)ethyl]-1,2,3,6-tetrahydropyridin-4yl]-6-chloro-1H-indole]: the inhibition (as a rule, the relative decrease from the control value, in per cent) at 0.05 µM worked out at 21%.
